Assay [1] concerns the target MAP kinase-activated protein kinase 2 (Homo sapiens, UniProt P49137). Kind of assay: Selectivity interaction (SelectScreen profiling (Invitrogen)) EUB0000607a MAPKAPK2. Conditions: at 2 µM.
The target of assay [2] is Casein kinase I isoform epsilon (Homo sapiens, UniProt P49674). The following applies: at 10 µM.
Assay [3] addresses Serine/threonine-protein kinase PRP4 homolog (Homo sapiens) (UniProt Q13523). Nature of the assay: Selectivity interaction (KinomeScan (DiscoverX)) EUB0000229b PRPF4B. The following applies: at 10 µM.
Assay [4] concerns the target Tyrosine-protein kinase ABL2 (Homo sapiens, UniProt P42684). Kind of assay: Selectivity interaction (KinomeScan (DiscoverX)) EUB0000655a ABL2. Conditions: at 10 µM.
In assay [5] the target is Serine/threonine-protein kinase 24 (Homo sapiens) (UniProt Q9Y6E0). Kind of assay: Selectivity interaction (Kinase panel (Invitrogen)) EUB0000639a STK24. Conditions: at 200 nM.
Chain of Serine/threonine-protein kinase 24 (Homo sapiens) (Q9Y6E0 whole entry, looked up): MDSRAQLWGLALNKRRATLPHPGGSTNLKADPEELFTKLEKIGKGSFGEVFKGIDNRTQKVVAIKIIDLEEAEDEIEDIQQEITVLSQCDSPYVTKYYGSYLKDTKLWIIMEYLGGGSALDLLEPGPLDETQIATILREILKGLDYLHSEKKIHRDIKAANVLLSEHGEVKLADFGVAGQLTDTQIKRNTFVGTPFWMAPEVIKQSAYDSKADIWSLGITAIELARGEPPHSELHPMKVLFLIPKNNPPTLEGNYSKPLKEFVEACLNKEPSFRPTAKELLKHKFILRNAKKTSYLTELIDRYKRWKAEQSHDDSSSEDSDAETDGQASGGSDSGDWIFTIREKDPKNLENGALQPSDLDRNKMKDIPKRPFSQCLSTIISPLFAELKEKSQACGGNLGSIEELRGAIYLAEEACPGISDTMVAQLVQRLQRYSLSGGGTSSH
The test system of assay [6] is Receptor-type tyrosine-protein kinase FLT3 (Homo sapiens), P36888 [UNDEFINED MUTATION]. The following applies: at 10 µM.
Assay [7] concerns the target RAF proto-oncogene serine/threonine-protein kinase (Homo sapiens) (UniProt P04049). Conditions: at 10 µM.
Assay [8] has as its target T1, TGF-beta receptor type-1 (Homo sapiens) (UniProt P36897).
T1 sequence (whole entry): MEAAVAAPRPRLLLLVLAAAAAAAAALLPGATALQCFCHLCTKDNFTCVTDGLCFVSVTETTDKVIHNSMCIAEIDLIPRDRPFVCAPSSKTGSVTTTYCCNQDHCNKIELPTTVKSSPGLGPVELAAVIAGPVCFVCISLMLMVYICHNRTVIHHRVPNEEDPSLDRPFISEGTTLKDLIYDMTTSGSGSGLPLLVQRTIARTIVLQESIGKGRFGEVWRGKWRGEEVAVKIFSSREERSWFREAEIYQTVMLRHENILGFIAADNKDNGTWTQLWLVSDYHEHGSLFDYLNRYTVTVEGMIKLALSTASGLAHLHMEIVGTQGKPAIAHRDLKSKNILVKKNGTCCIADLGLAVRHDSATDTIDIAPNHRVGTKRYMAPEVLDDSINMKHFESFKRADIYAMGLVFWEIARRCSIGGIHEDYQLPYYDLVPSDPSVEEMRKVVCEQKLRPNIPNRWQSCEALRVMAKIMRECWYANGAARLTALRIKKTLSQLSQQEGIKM
The following applies: at 10 µM.

In assay [9] the target is Ribosomal protein S6 kinase beta-1 (Homo sapiens, UniProt P23443). Nature of the assay: Selectivity interaction (Millipore kinase profiler) EUB0000124b RPS6KB1. Conditions: at 10 µM.
Chain of Ribosomal protein S6 kinase beta-1 (P23443 whole entry, looked up): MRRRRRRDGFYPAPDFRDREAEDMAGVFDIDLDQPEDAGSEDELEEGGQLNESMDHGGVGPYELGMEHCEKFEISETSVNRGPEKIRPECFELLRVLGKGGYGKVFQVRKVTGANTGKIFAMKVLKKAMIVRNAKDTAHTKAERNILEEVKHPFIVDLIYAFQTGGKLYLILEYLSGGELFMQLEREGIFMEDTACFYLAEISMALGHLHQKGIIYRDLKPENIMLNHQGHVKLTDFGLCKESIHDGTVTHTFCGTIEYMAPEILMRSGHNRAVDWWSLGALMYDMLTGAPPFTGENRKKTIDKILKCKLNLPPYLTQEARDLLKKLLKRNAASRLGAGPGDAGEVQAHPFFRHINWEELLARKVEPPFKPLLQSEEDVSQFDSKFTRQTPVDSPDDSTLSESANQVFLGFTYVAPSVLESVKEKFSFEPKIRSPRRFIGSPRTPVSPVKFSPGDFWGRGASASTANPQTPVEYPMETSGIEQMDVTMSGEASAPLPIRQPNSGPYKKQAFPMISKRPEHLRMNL
For assay [10], the target named is T2, Aurora kinase C (Homo sapiens) (UniProt Q9UQB9).
T2 sequence (whole entry): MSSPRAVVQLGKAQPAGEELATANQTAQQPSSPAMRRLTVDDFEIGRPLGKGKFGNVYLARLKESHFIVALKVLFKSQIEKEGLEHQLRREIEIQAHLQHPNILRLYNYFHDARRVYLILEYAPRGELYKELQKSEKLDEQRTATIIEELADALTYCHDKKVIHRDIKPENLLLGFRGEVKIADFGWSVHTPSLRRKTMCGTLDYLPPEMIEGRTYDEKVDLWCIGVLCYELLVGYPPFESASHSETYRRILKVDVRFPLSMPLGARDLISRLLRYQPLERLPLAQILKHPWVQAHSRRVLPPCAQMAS
Kind of assay: Selectivity interaction (KinomeScan (DiscoverX)) EUB0001049a AURKC. The following applies: at 1 µM.

Assay [11] has as its target T3, Inhibitor of nuclear factor kappa-B kinase subunit alpha (Homo sapiens) (UniProt O15111).
T3 sequence (whole entry): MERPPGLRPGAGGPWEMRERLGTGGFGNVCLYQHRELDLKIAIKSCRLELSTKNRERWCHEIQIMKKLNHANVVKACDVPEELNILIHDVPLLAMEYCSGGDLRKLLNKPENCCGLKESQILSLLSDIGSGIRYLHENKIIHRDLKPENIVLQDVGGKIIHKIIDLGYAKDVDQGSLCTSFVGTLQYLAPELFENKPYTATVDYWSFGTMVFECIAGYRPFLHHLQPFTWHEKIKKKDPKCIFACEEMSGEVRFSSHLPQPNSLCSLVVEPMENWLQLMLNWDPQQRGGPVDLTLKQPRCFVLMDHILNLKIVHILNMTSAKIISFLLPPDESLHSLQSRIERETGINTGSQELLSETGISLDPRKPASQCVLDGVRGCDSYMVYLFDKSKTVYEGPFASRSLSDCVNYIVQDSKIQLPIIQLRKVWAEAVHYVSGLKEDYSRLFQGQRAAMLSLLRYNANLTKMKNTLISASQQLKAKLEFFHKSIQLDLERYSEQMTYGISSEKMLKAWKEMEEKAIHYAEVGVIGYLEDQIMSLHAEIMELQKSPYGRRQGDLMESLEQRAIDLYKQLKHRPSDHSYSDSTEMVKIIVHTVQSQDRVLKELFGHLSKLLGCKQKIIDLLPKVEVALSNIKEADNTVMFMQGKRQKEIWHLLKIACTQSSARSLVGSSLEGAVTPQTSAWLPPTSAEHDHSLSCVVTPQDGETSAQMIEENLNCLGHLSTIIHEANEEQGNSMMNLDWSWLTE
Kind of assay: Selectivity interaction (KinomeScan (DiscoverX)) EUB0000092b CHUK. Conditions: at 10 µM.

Assay [12] concerns the target Serine/threonine-protein kinase SIK1 (Homo sapiens) (UniProt P57059). Nature of the assay: Selectivity interaction (KinomeScan (DiscoverX)) EUB0000045b SIK1.
Assay [13] deals with AP2-associated protein kinase 1 (Homo sapiens, UniProt Q2M2I8). Kind of assay: Selectivity interaction (KinomeScan (DiscoverX)) EUB0000618a AAK1. Conditions: at 10 µM.

Chain of Serine/threonine-protein kinase SIK1 (Homo sapiens) (P57059 whole entry): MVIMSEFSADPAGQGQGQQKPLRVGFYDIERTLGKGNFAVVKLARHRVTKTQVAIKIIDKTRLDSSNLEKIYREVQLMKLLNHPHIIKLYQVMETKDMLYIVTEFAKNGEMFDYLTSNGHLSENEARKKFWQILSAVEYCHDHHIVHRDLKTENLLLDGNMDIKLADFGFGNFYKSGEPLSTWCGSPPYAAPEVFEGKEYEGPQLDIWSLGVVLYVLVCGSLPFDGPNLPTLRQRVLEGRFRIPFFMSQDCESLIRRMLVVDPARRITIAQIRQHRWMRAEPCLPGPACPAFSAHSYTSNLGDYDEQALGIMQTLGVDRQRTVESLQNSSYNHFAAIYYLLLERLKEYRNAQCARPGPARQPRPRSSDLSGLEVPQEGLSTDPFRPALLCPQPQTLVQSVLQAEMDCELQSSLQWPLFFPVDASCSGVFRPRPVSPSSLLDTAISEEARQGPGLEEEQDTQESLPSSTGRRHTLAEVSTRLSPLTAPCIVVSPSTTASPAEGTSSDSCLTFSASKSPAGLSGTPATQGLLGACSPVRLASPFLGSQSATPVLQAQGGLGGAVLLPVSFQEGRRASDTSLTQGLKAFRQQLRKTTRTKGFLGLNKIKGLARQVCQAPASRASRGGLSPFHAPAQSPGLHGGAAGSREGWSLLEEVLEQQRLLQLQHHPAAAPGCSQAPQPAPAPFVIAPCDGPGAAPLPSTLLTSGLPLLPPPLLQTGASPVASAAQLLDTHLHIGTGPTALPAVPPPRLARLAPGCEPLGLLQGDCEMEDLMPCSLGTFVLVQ
Chain of Serine/threonine-protein kinase PRP4 homolog (Homo sapiens) (Q13523 whole entry): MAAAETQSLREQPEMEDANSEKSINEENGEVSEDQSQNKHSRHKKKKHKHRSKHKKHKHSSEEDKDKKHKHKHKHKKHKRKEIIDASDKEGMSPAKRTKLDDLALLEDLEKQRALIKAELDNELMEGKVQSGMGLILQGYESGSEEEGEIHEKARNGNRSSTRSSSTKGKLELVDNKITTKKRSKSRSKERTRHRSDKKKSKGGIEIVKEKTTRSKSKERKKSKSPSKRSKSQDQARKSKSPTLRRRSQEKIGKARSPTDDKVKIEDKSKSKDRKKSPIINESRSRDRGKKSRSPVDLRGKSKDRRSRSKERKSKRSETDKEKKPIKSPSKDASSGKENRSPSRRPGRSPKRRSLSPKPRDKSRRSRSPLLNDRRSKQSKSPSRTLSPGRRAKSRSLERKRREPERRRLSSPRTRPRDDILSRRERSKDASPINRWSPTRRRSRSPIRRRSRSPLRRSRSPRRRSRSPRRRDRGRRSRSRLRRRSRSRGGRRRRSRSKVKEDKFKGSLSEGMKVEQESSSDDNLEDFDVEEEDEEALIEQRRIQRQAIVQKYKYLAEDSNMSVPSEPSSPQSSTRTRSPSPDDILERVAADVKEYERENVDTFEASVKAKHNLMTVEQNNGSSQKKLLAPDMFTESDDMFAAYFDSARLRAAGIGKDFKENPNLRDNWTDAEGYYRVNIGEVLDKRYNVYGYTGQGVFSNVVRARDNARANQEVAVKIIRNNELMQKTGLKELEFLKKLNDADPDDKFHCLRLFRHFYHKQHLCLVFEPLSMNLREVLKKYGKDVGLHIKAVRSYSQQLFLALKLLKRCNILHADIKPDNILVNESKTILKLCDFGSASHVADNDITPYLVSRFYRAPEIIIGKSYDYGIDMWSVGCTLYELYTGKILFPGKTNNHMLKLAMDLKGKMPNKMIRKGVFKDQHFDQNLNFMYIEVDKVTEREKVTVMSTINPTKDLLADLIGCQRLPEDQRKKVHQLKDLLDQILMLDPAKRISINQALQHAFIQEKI
Chain of RAF proto-oncogene serine/threonine-protein kinase (Homo sapiens) (P04049 whole entry): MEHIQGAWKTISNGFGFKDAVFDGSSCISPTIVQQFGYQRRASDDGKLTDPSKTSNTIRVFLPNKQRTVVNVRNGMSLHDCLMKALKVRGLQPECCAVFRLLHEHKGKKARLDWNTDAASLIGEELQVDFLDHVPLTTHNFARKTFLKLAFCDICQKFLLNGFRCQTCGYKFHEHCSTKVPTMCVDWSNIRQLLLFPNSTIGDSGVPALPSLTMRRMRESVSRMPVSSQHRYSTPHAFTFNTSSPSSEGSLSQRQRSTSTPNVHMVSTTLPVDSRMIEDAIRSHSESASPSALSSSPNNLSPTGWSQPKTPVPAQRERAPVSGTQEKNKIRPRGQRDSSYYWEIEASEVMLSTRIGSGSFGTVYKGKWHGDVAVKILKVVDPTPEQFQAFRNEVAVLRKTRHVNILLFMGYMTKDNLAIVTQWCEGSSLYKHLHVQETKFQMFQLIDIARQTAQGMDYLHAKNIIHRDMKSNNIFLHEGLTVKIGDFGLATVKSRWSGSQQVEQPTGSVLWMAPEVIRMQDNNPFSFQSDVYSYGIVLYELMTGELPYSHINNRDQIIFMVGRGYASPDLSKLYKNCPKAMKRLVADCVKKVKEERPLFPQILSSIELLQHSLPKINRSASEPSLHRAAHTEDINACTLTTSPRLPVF
Chain of Casein kinase I isoform epsilon (P49674 whole entry, looked up, canonical isoform): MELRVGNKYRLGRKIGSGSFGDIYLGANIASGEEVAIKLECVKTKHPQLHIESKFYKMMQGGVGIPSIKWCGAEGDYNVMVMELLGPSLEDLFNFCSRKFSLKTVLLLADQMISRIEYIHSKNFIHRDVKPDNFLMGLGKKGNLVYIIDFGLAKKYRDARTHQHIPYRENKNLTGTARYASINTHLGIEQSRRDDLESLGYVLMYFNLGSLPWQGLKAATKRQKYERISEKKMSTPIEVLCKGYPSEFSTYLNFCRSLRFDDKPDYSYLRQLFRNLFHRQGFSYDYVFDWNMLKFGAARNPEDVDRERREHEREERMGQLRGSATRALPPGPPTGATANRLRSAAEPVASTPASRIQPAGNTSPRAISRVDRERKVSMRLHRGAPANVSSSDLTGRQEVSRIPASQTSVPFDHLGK
Chain of MAP kinase-activated protein kinase 2 (P49137 whole entry, looked up, canonical isoform): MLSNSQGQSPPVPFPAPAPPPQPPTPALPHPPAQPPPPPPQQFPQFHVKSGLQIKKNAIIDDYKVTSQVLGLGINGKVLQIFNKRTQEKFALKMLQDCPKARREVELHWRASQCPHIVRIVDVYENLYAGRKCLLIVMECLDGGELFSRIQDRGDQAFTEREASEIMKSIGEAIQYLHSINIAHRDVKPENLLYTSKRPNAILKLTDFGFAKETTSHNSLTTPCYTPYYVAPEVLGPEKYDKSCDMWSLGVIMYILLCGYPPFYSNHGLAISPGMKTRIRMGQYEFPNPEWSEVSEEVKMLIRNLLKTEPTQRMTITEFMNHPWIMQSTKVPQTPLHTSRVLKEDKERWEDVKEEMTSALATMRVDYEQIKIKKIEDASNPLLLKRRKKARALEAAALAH

`CNC(=O)Nc1ccc(-c2nc(N3CC4CCC(C3)O4)c3cnn(C4CCC5(CC4)OCCO5)c3n2)cc1` registered a % of inhibition in [1] of 4%. In assay [2], `Cc1cc([C@@H](C)Nc2ccccc2C(=O)O)c2nc(N3CCOCC3)cc(=O)n2c1` [AZD-6482] showed a % of control of 98%. Turning to `COc1cc(N(C)c2ccnc3ccc(C(F)(F)F)cc23)cc(OC)c1OC`, the % binding in assay [3] was 100%.

In turn, `CN(C)CCOc1ccc(-c2nc(-c3ccncc3)c(-c3ccc4c(c3)CC/C4=N\O)[nH]2)cc1` came in with a % of control in [4] of 55%. Compound `CC[C@@H]1[C@H](F)C(=O)N[C@@H]1COc1nccc2cc(C(N)=O)c(OC)cc12` [ZIMLOVISERTIB] gave a % of inhibition in assay [5] of 23.2%. On to `CCN(CC)CCCCNc1ncc2cc(-c3cc(OC)cc(OC)c3)c(NC(=O)NC(C)(C)C)nc2n1`, for which the % of control in assay [6], in assay [7] and in assay [8] was 100% throughout. As for `CC(=O)Nc1cccc(-n2c(=O)n(C3CC3)c(=O)c3c(Nc4ccc(I)cc4F)n(C)c(=O)c(C)c32)c1`, the % of control in [9] amounted to 104%. `COc1cc(Nc2nc(C)cc(-c3cnn4nc(OC)ccc34)n2)cc(C(F)(F)F)c1` showed a % of control in [10] of 84%.

`CCC(=O)N1CCN(c2ccc(-n3c(=O)ccc4cnc5ccc(-c6cnc7ccccc7c6)cc5c43)cc2C(F)(F)F)CC1` had a % of control in [11] of 41%. As for `C=CC(=O)Nc1cc(-n2c(=O)ccc3cnc4ccc(-c5ccc(NS(C)(=O)=O)cc5)cc4c32)ccc1C`, the % of control is 100% in [12] (at 1 µM) and 69% in assay [12] (at 10 µM). In turn, `O[C@H]1CC[C@H](Nc2ncc3nc(Nc4c(F)cc(F)cc4F)n([C@H]4CCOC4)c3n2)CC1` displayed a % of control in assay [13] of 100%.

The values are drawn from ChEMBL document CHEMBL5465560, “Selectivity Literature for EUbOPEN Chemogenomic Library” (2024).
